The record followed here is patent US5674905A, “Bicyclooctane and bicycloheptane derivatives” (James Black Foundation Limited, priority 1992, dated 1997).

In one assay the target is T1, CCKB receptor (Mus musculus, UniProt P56481).
T1 construct: The cortex was dissected, weighed and homogenised in 40 ml ice-cold buffer; from tissue; host or cells: cerebral cortex membranes of male CD1 mice (Charles River)
T1 sequence (P56481 1-453): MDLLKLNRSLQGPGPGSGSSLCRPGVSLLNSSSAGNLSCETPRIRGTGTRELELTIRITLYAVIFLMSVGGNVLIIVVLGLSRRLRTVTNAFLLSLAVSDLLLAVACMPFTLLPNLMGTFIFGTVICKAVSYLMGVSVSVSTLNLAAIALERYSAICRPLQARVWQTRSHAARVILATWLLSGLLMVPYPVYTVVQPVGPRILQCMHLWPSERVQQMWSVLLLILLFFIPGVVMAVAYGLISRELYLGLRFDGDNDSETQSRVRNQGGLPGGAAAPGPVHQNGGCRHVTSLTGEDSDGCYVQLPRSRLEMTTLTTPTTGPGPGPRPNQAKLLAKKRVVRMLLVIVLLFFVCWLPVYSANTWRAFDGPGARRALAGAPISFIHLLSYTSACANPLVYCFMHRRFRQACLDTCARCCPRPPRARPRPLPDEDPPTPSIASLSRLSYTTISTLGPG
Put plainly: radioligand binding assay at the CCKB receptor in mouse cortical membranes ([125I]-CCK8S). To be noted: 150 min at 21±3°; for Ki: read-out: CCKB pKi (converted). Here is the method:
The compounds of the examples were tested for binding at the CCKB receptor in mouse cortical membranes by means of a radioligand binding assay. The procedure was as follows:
The whole brains from male mice (CD1 22-25 g; Charles River) were removed and placed in ice-cold buffer (pH7.2 @ 21±3 °) of the following composition (mM); 10 HEPES, 130 NaCl, 4.7 KCl, 5 MgCl2, 1 EDTA and containing 0.25 g.1^-1 bacitracin. The cortex was dissected, weighed and homogenised in 40 ml ice-cold buffer using a Teflon-in-glass homogeniser. The homogenate was centrifuged at 39,800 g for 20 min at @ 4°, the supernatant discarded and the pellet resuspended by homogenisation in fresh buffer. The homogenate was recentrifuged (39,800 g; 20 min @4°) and the final pellet was resuspended in HEPES buffer to give a tissue concentration of 2 mg.ml^-1 (original wet weight).
The membranes ([…]) were incubated for 150 min at 21±3° in a final volume of 0.5 ml with HEPES buffer containing [^125 I]-CCK8S (0.05 ml; 200 pM NEN 2200 Ci.mmol^-1) and competing compound. Total and non-specific binding of [^125 I]-CCK8S were defined using 0.05 ml of buffer and 0.05 ml of […] L-365,260, respectively. The assay was terminated by rapid filtration through pre-soaked Whatman GF/B filters using a Brandell Cell harvester. The filters were washed (3×3 ml) with ice-cold 50 mM Tris-HC1 (pH7.4 @ 4° C.) and bound radioactivity determined by counting (1 min.) in a gamma-counter.

Another assay concerns the target T2, gastrin receptors (Rattus norvegicus, UniProt P30553).
T2 construct: from tissue; host or cells: isolated perfused whole stomach of immature rats (33-50 g, ca. 21 days old)
T2 sequence (P30553 1-452): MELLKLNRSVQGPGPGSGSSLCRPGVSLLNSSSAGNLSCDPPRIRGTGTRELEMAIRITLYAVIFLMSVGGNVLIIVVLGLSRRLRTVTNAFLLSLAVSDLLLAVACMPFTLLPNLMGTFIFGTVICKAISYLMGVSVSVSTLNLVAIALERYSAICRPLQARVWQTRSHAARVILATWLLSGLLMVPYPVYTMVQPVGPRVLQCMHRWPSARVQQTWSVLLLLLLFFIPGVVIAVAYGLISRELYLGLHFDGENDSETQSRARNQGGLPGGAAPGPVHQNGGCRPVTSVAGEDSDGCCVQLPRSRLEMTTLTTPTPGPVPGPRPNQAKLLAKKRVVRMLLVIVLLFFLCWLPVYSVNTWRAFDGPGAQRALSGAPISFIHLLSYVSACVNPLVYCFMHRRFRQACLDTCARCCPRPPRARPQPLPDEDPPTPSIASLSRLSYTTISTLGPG
Put plainly: gastrin antagonist activity in an immature rat stomach assay (pentagastrin-stimulated acid secretion). The following applies: isolated immature rat stomach, cumulative pentagastrin dose-response curves; for Kb: read-out: Gastrin pKB (converted); for Gastrin pKB: 60 min. Here is the method: The compounds of the examples were also tested for gastrin antagonist activity in an immature rat stomach assay. The procedure was as follows:
The oesophagus of immature rats (33-50 g, ca. 21 days old) was ligated at the level of the cardiac sphincter and the duodenal sphincter was cannulated. The stomach was excised and flushed with ca. 1 ml of unbuffered physiological saline solution. The fundus was punctured and cannulated. A further 4-5 ml of unbuffered solution was flushed through the stomach to ensure the preparation was not leaking. The stomach was lowered into a jacketed organ bath containing 40 ml of buffered solution containing 3×10^-8 M 5-methyl-furmethide, maintained at 37° and gassed vigorously with 95% O2 /5% CO2. The stomach was continuously perfused at a rate of 1 ml min^-1 with unbuffered solution gassed with 100% O2 with the perfusate passing over an internally referenced pH-electrode fixed 12 cm above the stomach.
After 120 min of stabilisation the drugs were added directly to the serosal solution in the organ bath and after a further 60 min cumulative pentagastrin dose-response curves were started. Changes in acid secretion were monitored and the curves analysed according to Black et. al., Br. J. Pharmacol., 1985, 86, 581.

As for `O=C(NCC12CC3CC(CC(C3)C1)C2)C1C2C=CC(c3ccccc32)C1C(=O)N[C@H](Cc1c[nH]c2ccccc12)C(=O)O` (single isomer, unassigned) [Example 15, endo-cis-7-(2-R-(3-indolyl)-1-carboxy-ethylaminocarbonyl)-8-(1-adamantylmethylaminocarbonyl)-5,6-benzobicyclo[2.2.2]oct-2-ene], the Ki on CCKB receptor was 1580 nM. The Kb on gastrin receptors was 3160 nM.
With `O=C(NCC12CC3CC(CC(C3)C1)C2)C1C2C=CC(c3ccccc32)C1C(=O)N1CCC[C@H]1C(=O)O` (stereo partly drawn) [Example 27, exo-cis-7-(2-S-carboxy-pyrrolidinocarbonyl)-8-(1-adamantylmethylaminocarbonyl)-5,6-benzo-bicyclo[2.2.2]oct-2-ene], the “CCKB pKi” value on CCKB receptor was found to be 6.2. Further, at gastrin receptors, the “Gastrin pKB” value is 6.5.
Turning to `O=C(NCC12CC3CC(CC(C3)C1)C2)C1C2C=CC(c3ccccc32)C1C(=O)N1CCC[C@@H]1C(=O)O` (stereo partly drawn) [Example 9, exo-cis-7-(2-R-carboxy-pyrrolidinocarbonyl)-8-(1-adamantylmethylaminocarbonyl)-5,6-benzobicyclo-[2.2.2]oct-2-ene], the Ki on CCKB receptor is 2510 nM. Besides, the Kb at gastrin receptors is 794 nM.
For `O=C(NCC12CC3CC(CC(C3)C1)C2)C1C2C=CC(c3ccccc32)C1C(=O)N1C[C@H](O)C[C@@H]1C(=O)O` (stereo partly drawn) [Example 29, exo-cis-7-(2-R-carboxy-4-R-hydroxy-pyrrolidinocarbonyl)-8-(1-adamantylmethylaminocarbonyl)-5,6-benzo-bicyclo[2.2.2]oct-2-ene], the Ki at CCKB receptor is 2510 nM. At gastrin receptors, the Kb is 2000 nM.
As to `COC(=O)C12CC(c3ccccc31)C(C(=O)NCC13CC4CC(CC(C4)C1)C3)C2C(=O)N[C@@H](Cc1ccccc1)C(=O)Nc1cc(C(=O)O)cc(C(=O)O)c1` (mixture of isomers) [Example 55, (±)-1-methoxycarbonyl-endo-cis-6-(1S-(3,5-dicarboxyphenylaminocarbonyl)-2-phenylethylamino-carbonyl)-7-(1-adamantylmethylaminocarbonyl)-2,3-benzo-bicyclo[2.2.1]heptane], the “CCKB pKi” value at CCKB receptor is 7.6. Besides, on gastrin receptors, the “Gastrin pKB” value is listed as 6.9.
As to `COC(=O)C12CC(c3ccccc31)C(C(=O)NCC13CC4CC(CC(C4)C1)C3)C2C(=O)O` (mixture of isomers) [Example 54, 1-methoxycarbonyl-endo-cis-(±)-7-(1-adamantylmethylaminocarbonyl)-2,3-benzobicyclo-[2.2.1] hept-6-carboxylic acid], the “CCKB pKi” value at CCKB receptor is reported as 5.3. At gastrin receptors, the “Gastrin pKB” value was determined as 6.1.
Turning to `COC(=O)[C@H](C)NC(=O)C1C2C=CC(c3ccccc32)C1C(=O)NCC12CC3CC(CC(C3)C1)C2` (stereo partly drawn) [Example 8, endo-cis-7-(1--S--methoxycarbonylethylaminocarbonyl)-8-(1-adamantylmethylaminocarbonyl)-5,6-benzobicyclo[2.2.2]oct-2-ene], at CCKB receptor, the Ki is 631 nM. Besides, the Kb at gastrin receptors is 501 nM.
For the compound `COC(=O)[C@H](C)NC(=O)C1C2C=CC(CC2)C1C(=O)NCC12CC3CC(CC(C3)C1)C2` (stereo partly drawn) [Example 24, endo-cis-2-(1-S-Methoxycarbonyl-ethylaminocarbonyl)-3-(1-adamantylmethylaminocarbonyl)-bicyclo[2.2.2]oct-5-ene], the Ki on CCKB receptor is 10000 nM. Besides, the Kb on gastrin receptors is 1260 nM.
With `O=C(NCC12CC3CC(CC(C3)C1)C2)C1C2C=CC(c3ccccc32)C1C(=O)N1CCC[C@H]1C(=O)O` (stereo partly drawn) [Example 26, endo-cis-7-(2-S-carboxy-pyrrolidinocarbonyl)-8-(1-adamantylmethylaminocarbonyl)-5,6-benzo-bicyclo[2.2.2]oct-2-ene], the Ki at CCKB receptor was 3160 nM. In addition, the Kb on gastrin receptors was 1260 nM.
With `O=C(O)C1C2C=CC(C2=C(c2ccccc2)c2ccccc2)C1C(=O)NCC12CC3CC(CC(C3)C1)C2` (racemic) [Example 39, (±)-endo and exo-cis-7-(1-adamantylmethylaminocarbonyl)-2-diphenylmethylene bicyclo-[2.2.1]hept-4-ene-6-carboxylic acid], the Ki on CCKB receptor is 2000 nM. The Kb on gastrin receptors is 2510 nM.
For `CC1=C(C)[C@H]2c3ccccc3[C@@H]1[C@H](C(=O)O)[C@@H]2C(=O)NCC12CC3CC(CC(C3)C1)C2` (relative stereo) [Example 12, endo-(±)-cis-8-(1-adamantylmethylaminocarbonyl)-2,3-dimethyl-5,6-benzobicyclo[2.2.2]oct-2-ene-7-carboxylic acid] the same measures were 794 nM and 5010 nM.
